These results are taken from patent publication US20050222253A1, “Anti-cancer nitro- and thia-fatty acids” (priority 1999, published 2005).

Entries after “also recorded” stand apart in the source; their conditions may differ.

Data set [1] relates to DU145 cells. As to the kind of experiment: DU145 tumour cell survival (MTS cell proliferation assay). The conditions noted are these: for DU145 cell survival, screening test: 20 μM fatty acid, 24 hrs, MTS (FIG. 4); for Anti tumour effect on DU145 tumour cells: various concentrations and times (FIGS. 1, 2). Format: cell-based, human. How it is done:
Lx compounds were tested for activity against two androgen insensitive prostate cancer tumour cell lines, DU145(liver metastases) and PC3(brain metastases). […] Survival was measured using the MTS cell proliferation assay.
Various concentrations for varying amounts of time of Lx compounds were added to either DU145 or PC3 tumour cells in culture. Viability/death of tumour cells was measured by a standard colourimetric assay. […] It is also evident from the results (FIG. 2) that the saturated nitro compound Lx1 (19:0-NO2) is not active and neither is MP2 (β-thia 23:0), a saturated […] fatty acid. […] In a further screening test, the human prostate cell line, DU145 cells (liver metastases), was treated for 24 hrs with 20 μM Fatty Acid and cell survival was measured using the MTS cell proliferation assay. This assay uses colourimetric measurement of substrate conversion to formazan which occurs only in the presence of NADH in a metabolically active cell. There was varied anti-tumour activity amongst the different types of PUFA.
(§1) DU145 cells were treated with PUFA and incubated for 24 h (for the proliferation assay), 4 h (for the caspase assay) and for 18 h (for PARP cleavage).
(§2) Proliferation was quantitated by MTS assay. Caspases 3 and 7 were assayed by a fluorometric assay using a […] substrate. PARP cleavage was measured by Western blots using an anti PARP antibody.
(Formazan colour is commonly taken as a measure of viable cells.)

Data set [2] relates to PARP. Nature of the data set: PARP cleavage by Western blot in DU145 cells. The format is cell-based, human. The conditions noted are these: 18 h, anti PARP antibody (FIG. 5C). How it is done:
as §1, §2

Data set [3] has as its system Caspases 3 and 7. Nature of the data set: Caspase 3 and 7 fluorometric assay in DU145 cells. Format: cell-based, human. How it is done:
as §1, §2

In data set [4] the target is T1, 15-LO (Glycine max, UniProt P08170).
T1 construct: purchased Sigma Chemical Company
T1 sequence (P08170 1-839): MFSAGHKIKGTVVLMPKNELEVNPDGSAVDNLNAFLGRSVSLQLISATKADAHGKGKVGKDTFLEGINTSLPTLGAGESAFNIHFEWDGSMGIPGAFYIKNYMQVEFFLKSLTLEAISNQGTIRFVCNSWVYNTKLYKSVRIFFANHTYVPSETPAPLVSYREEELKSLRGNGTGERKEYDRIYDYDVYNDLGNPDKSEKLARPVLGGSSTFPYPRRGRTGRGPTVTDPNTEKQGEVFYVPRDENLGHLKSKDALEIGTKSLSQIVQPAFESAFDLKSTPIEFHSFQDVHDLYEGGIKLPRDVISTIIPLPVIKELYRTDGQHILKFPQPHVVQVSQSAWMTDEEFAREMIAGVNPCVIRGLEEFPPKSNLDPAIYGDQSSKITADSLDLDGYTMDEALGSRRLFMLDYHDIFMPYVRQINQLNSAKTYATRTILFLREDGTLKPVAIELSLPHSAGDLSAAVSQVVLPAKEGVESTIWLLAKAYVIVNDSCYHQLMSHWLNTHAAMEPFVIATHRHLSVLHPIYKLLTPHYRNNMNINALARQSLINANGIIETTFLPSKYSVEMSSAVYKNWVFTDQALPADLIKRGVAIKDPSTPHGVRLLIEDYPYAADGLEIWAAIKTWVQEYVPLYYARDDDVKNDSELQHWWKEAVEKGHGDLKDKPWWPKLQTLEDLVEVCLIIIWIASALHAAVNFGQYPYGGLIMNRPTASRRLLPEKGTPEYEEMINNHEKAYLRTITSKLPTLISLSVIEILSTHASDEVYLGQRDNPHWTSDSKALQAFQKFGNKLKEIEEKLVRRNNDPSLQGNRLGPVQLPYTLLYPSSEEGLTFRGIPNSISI
Nature of the data set: Effect on 15-LO catalysed oxidation of arachidonic acid. Format: biochemical, soybean. The conditions noted are these: preliminary experiment, result in words.

Data set [5] addresses 5-LO (Solanum tuberosum, UniProt P37831). As to the kind of experiment: Effect on 5-LO catalysed oxidation of arachidonic acid. The format is biochemical. The conditions noted are these: preliminary experiment, purified enzyme, result in words. How it is done:
Based on this consideration, 5-LO, 12-LO and 15-LO catalysed oxidation of the nitro compounds (4a, 4b, 6a, 6b, 8a and 8b) was investigated. Each of the nitro compounds was treated with 15-LO in pH 9.0 buffer (or 5-LO in pH 6.3 buffer and 12-LO in pH 7.4 buffer), and the formation of 15-hydroperoxy derivatives (or 5-hydroperoxy or 12-hydroperoxy derivatives) over time was monitored by LW spectroscopy at 234 nm. […]

Data set [6] has as its target T2, 12-LO (Sus scrofa, UniProt P16469).
T2 construct: purchased Cayman Chemical Company
T2 sequence (P16469 1-663): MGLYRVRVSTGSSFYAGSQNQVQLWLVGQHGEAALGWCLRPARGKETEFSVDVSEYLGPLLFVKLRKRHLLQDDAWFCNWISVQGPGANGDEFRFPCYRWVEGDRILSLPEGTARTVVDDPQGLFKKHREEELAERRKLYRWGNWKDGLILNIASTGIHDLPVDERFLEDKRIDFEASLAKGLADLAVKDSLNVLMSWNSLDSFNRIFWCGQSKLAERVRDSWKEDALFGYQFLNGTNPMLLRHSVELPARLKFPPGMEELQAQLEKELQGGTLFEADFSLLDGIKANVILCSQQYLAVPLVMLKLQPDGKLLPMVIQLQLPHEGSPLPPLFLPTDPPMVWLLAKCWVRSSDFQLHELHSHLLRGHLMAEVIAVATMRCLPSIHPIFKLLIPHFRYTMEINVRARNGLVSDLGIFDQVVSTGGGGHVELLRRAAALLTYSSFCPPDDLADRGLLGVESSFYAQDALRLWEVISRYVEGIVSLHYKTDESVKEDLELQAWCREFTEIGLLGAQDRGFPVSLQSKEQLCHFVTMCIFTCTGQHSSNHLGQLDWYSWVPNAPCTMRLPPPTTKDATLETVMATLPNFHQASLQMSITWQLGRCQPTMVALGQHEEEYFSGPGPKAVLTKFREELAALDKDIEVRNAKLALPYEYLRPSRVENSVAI
As to the kind of experiment: Effect on 12-LO catalysed oxidation of arachidonic acid. The format is biochemical, porcine. The conditions noted are these: preliminary experiment, result in words. How it is done: Based on this consideration, 5-LO, 12-LO and 15-LO catalysed oxidation of the nitro compounds (4a, 4b, 6a, 6b, 8a and 8b) was investigated. Each of the nitro compounds was treated with 15-LO in pH 9.0 buffer (or 5-LO in pH 6.3 buffer and 12-LO in pH 7.4 buffer), and the formation of 15-hydroperoxy derivatives (or 5-hydroperoxy or 12-hydroperoxy derivatives) over time was monitored by LW spectroscopy at 234 nm.
A number of Lx compounds were tested for anti 5-LOX and 12-LOX activities in the human breast cancer cell line, MCF-7. […] The ability of 5-LOX and 12-LOX to produce oxidated products of 20:4n-6 with a different absorption wavelength in the presence of nitroso-PUFA was examined and is shown in the progress curves in FIG. 6. […] Within cells, activation of 5-LOX is facilitated by 5-LOX activating protein (FLAP). Thus, in intact cells, Lx7 and Lx9 may be able to activate 5-LOX at lower concentrations than those required in the purified enzyme system shown in FIG. 6. […] By being able to activate 5-LOX and suppress 12-LOX, these compounds have the desired characteristics of anti-breast cancer agents as discussed previously.
15-LO was obtained from Sigma Chemical Company, and 12-LO from Cayman Chemical Company. Arachidonic acid 1, linolenyl alcohol 57a, gamma linolenyl alcohol 5b, arachidonyl alcohol 57c and docosahexaenyl alcohol 57d were purchased from Nu-Chek Prep. Inc. Elysian, Minn., USA. Other chemicals were commercially available from Aldrich Chemical Company.

Data set [7] relates to MCF-7 cells. As to the kind of experiment: Killing of MCF-7 breast cancer cells in vitro. The format is cell-based, human. The conditions noted are these: in vitro (FIG. 7); compared with 20:4n-6 toxicity. The source says: While interference with 5-LOX or 12-LOX activity individually impacts on growth rates of human breast cancer MCF-7 cells^(55,56), the simultaneous modification of the activities of both enzymes at once may cause death. […] Lx4, a nitroso-compound with the same number of carbon atoms and degree of unsaturation as Lx9 but lacking a COOH group, was ineffective (FIG. 7).

Sequence of 5-LO (P37831 whole entry): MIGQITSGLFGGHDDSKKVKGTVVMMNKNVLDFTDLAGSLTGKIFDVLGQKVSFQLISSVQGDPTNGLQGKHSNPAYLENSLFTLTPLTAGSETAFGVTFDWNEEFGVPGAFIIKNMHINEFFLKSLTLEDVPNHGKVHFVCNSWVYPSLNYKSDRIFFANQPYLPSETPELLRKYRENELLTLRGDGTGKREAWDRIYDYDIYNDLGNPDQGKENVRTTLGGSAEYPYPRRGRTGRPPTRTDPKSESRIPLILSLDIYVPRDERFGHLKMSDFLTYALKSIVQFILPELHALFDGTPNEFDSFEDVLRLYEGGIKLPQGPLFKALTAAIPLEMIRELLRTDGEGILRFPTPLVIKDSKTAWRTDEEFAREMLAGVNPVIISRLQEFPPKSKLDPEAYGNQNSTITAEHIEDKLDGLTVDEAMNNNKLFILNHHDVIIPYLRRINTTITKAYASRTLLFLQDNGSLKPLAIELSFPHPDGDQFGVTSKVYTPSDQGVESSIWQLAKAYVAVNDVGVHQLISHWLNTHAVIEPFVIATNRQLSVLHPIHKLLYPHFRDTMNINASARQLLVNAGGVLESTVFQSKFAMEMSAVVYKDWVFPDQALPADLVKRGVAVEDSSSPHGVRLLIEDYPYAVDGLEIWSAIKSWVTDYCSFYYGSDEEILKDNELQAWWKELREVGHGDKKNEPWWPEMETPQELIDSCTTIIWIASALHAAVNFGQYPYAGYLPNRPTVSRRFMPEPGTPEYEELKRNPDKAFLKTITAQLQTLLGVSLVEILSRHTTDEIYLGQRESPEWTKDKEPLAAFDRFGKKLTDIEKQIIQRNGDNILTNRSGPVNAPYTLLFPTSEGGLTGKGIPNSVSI

As to `CCCCCCCCCCCCCC[S+]([O-])CCC(=O)O` (centres unmarked) [Compound 113, 3-(tetradecylsulfinyl) propionic acid], the melting point (in general, the temperature of the solid-liquid transition) was in the range of 166 to 167 °C.
For `CC/C=C\C/C=C\C/C=C\C/C=C\C/C=C\C/C=C\CCC(=O)NCC(=O)O` [PTS], the “DU145 cell survival, screening test” value in data set [1] is “some activity”.
Consider `CCCCC/C=C\C/C=C\C/C=C\C/C=C\CCCCOCC(=O)O` [MP3], for which the PARP cleavage result in data set [2] is reported as “cleavage of PARP”. In data set [3] (DU145 cells, 4 h (FIG. 5B)), the Activation of caspases result is on record as “activation of caspases”. In addition, in data set [3] (concluded from caspase activation and PARP cleavage), the “Induction of apoptosis in DU145 cells” value was “induce apoptosis”. In addition, the “DU145 cell survival, screening test” value in data set [1] is given as “highly active”. Moreover, the DU145 cell proliferation entry in data set [1] (24 h, MTS assay (FIG. 5A)) is “marked inhibition of cell proliferation”.
In the case of `CC/C=C\C/C=C\C/C=C\C/C=C\C/C=C\C/C=C\CCC[N+](=O)[O-]` [Lx5, (all-z)-1-Nitro-4,7,10,13,16,19-docosahexaene], the “Effect on 15-LO catalysed oxidation of AA” value in data set [4] was “Nil”.
Take `CC/C=C\C/C=C\C/C=C\CCCCCCCCSCCC(=O)O` [MP13, 3-[(Z,Z,Z)-(octadeca-9,12,15-trienylthio)]propionic acid]: in data set [1], the “DU145 cell survival, screening test” value is listed as “highly active”.
As to `CCC=CCC=CCC=CCCCCCCCCSCC(=O)O` [MP10], in data set [1], the “DU145 cell survival, screening test” value is listed as “most active”.
On to `CCCCCCCCCCCCCCCCCC(CCC(=O)O)[N+](=O)[O-]` (centres unmarked) [Lx6, 4-Nitrohenicosanoic acid], for which the “Effect on 5-LO catalysed oxidation of AA” value in data set [5] is given as “Inhibitory”; in data set [5] (listed as 4-nitrohenicosanoic acid), “selective inhibitors”; in data set [5] (listed as 6a) it was “inhibiting 5-LO”. Besides, the “Effect on 12-LO catalysed oxidation of AA” value in data set [6] is “Activatory”. In addition, the “Effect on 15-LO catalysed oxidation of AA” value in data set [4] was “Activatory”; in data set [4] (listed as 6a), “not 15-LO”. In data set [1] (15 μM, after 24 hours of culture (FIG. 2)), the “Killing of DU145 tumour cells” value is given as “killing of all the tumour cell population”. In data set [1], the “Anti tumour effect on DU145 tumour cells” value is “concentration and time related effects”.
With `CCC=CCC=CCC=CCC=CCC=CCC=CCCCOCC(=O)O` [MP6], in data set [1], the “DU145 cell survival, screening test” value was “most active”.
For the compound `CC/C=C\C/C=C\C/C=C\CCCCCCCC[N+](=O)[O-]` [Lx2, (z,z,z)-1-Nitro-9,12,15-octadecatriene], in data set [4], the “Effect on 15-LO catalysed oxidation of AA” value is listed as “Nil”.
On to `CCCCC/C=C\C/C=C\C/C=C\CCCCCSCC(=O)O` [MP9], for which the “DU145 cell survival, screening test” value in data set [1] was “most active”.
`CCCCC/C=C\C/C=C\C/C=C\C/C=C\CCCC[N+](=O)[O-]` [Lx4, (all-z)-1-Nitro-5,8,11,14-eicosatetraene]: in data set [5], the “Effect on 5-LO catalysed oxidation of AA” value was “Nil”. The “Effect on 12-LO catalysed oxidation of AA” value in data set [6] is on record as “Nil”. Besides, the “Effect on 15-LO catalysed oxidation of AA” value in data set [4] is recorded as “Nil”. Besides, the “Killing of MCF-7 tumour cells” value in data set [7] is recorded as “ineffective”.
Take `CCCCC/C=C\C/C=C\C/C=C\CCCCCSCCC(=O)O` [MP12]: the “DU145 cell survival, screening test” value in data set [1] was “most active”.
For the compound `CCCCC/C=C\C/C=C\C/C=C\C/C=C\CCCCSCC(=O)O` [MP8, (all-Z)-(eicosa-5,8,11,14-tetraenylthio) acetic acid], the “DU145 cell survival, screening test” value in data set [1] was “highly active”.
Consider `CCCCC/C=C\C/C=C\C/C=C\C/C=C\CCCC(CCC(=O)O)(CCC(=O)O)[N+](=O)[O-]` [Lx9, 3-[(all-Z)-Nonadeca-4,7,10,13-tetraenyl]-3-nitropentane-1,5-dicarboxylic acid], for which, in data set [5], the “Effect on 5-LO catalysed oxidation of AA” value was “can activate 5-LOX; also recorded: Activatory”. Besides, the “Effect on 12-LO catalysed oxidation of AA” value in data set [6] is “direct, potent and rapid inhibitor of 12-LOX; also recorded: Inhibitory”; in data set [6] (listed as 3-(all-Z)-nonadeca-4,7,10,13-tetraenyl]-3-nitropentane-1,5-dicarboxylic acid) it was “selective inhibitors”; in data set [6] (listed as 8b) it was “significant inhibitory effect”. The “Effect on 15-LO catalysed oxidation of AA” value in data set [4] is listed as “Nil”. In addition, the “Killing of MCF-7 tumour cells” value in data set [7] is “kill these tumour cells”.
In the case of `CCCCCCCCCCCCCCCCCC[N+](=O)[O-]` [Lx1, 1-Nitrooctadecane], the “Effect on 5-LO catalysed oxidation of AA” value in data set [5] was “Nil”. Besides, the “Effect on 12-LO catalysed oxidation of AA” value in data set [6] is “Nil”. Moreover, the “Effect on 15-LO catalysed oxidation of AA” value in data set [4] was “Nil”. Moreover, in data set [1], the “Anti tumour effect on DU145 tumour cells” value was “not active”.
With `CCCCC/C=C\C/C=C\C/C=C\CCCCC[N+](=O)[O-]` [Lx3, (z,z,z)-1-Nitro-6,9,12-octadecatriene], in data set [4], the “Effect on 15-LO catalysed oxidation of AA” value is “Nil”.
